Results as given in PMC12689286, “Enhanced therapeutics of cabazitaxel via polycarboxylate conjugation: improved solubility, safety, and antitumor efficacy” (Frontiers in Immunology, 2025).

Experiments:
[1] = Lipid-aqueous (octanol/water) partition coefficient; format: physicochemical; settings: room temperature
Experimental: CTXs were dissolved in octanol, and an equal volume of water was added, followed by shaken at 100 rpm for 24 h at room temperature. The upper octanol phase and lower water phase were separated by centrifugation. The supernatant was analyzed by HPLC (Bruker SolanX 70 FT-MS; Agilent 6540TOF) ([21]).

A549 = assay: MTS cytotoxicity, A549; format: cell-based; settings: Homo sapiens
Experimental: (§1) Human cancer cell lines were cultured in basic medium (10% fetal bovine serum (FBS)+1% double antibody solution) (Biological Industries) at 37°C in a 5% CO2 incubator. Effects of CTXs on cell proliferation and viability were measured by an MTS (Promega Corporation) assay. Absorbance values at 490 nm were measured using a microplate reader (Thermo Scientific, Varioskan Flash) ([22]).

Bel-7402 = assay: MTS cytotoxicity, Bel-7402; format: cell-based; settings: Homo sapiens; Bel-7402, MTS
Experimental: as §1

DU145 = assay: MTS cytotoxicity, DU145; format: cell-based; settings: Homo sapiens, DU-145
Experimental: as §1

Fadu = assay: MTS cytotoxicity, Fadu; format: cell-based; settings: Homo sapiens
Experimental: as §1

H358 = assay: MTS cytotoxicity, H358; format: cell-based; settings: Homo sapiens, NCI-H358
Experimental: as §1

H460 = assay: MTS cytotoxicity, H460; format: cell-based; settings: Homo sapiens, NCI-H460
Experimental: as §1

H520 = assay: MTS cytotoxicity, H520; format: cell-based; settings: Homo sapiens, NCI-H520
Experimental: as §1

HCT 116 = assay: MTS cytotoxicity, HCT 116; format: cell-based; settings: Homo sapiens; HCT 116, MTS
Experimental: as §1

HT-29 = assay: MTS cytotoxicity, HT-29; format: cell-based; settings: Homo sapiens; HT-29, MTS
Experimental: as §1

LN229 = assay: MTS cytotoxicity, LN229; format: cell-based; settings: Homo sapiens, LN-229
Experimental: as §1

MCF-7 = assay: MTS cytotoxicity, MCF-7; format: cell-based; settings: Homo sapiens, MCF7; MCF-7, MTS
Experimental: as §1

PC-3 = assay: MTS cytotoxicity, PC-3; format: cell-based; settings: Homo sapiens; PC-3, MTS
Experimental: as §1

SK-OV-3 = assay: MTS cytotoxicity, SK-OV-3; format: cell-based; settings: Homo sapiens; SK-OV-3, MTS
Experimental: as §1

L-02 = assay: MTS cytotoxicity, L-02 (non-tumor); format: cell-based; settings: Homo sapiens, L02, L-02 non-tumor cell line
Experimental: as §1

3T3 = assay: MTS cytotoxicity, 3T3 (non-tumor); format: cell-based; settings: Mus musculus, NIH3T3, 3T3 non-tumor cell line
DU145 cells = assay: Cell cycle arrest (PI, flow cytometry); format: cell-based, human; settings: 24 h
Experimental: Cells were incubated with drugs for 24 h. Fixed cells were incubated with RNase A and stained with propidium iodide (PI). DNA content was determined in a flow cytometer (BD FACS CaliburTM Flow Cytometer, USA) ([23]).

Hemolysis test = format: cell-based, SD rats; settings: SD, rat, rat red blood cells, 2% (v/v) suspension, 37 °C, 1.5 h
Experimental: (§2) The hemolytic potential of CTX formulations was evaluated using rat red blood cells (RBCs). Briefly, whole blood was collected from the abdominal aorta of anesthetized SD rats into ACD anticoagulant (blood:ACD = 1:4, v/v). The blood was diluted with normal saline (4:5, v/v) and centrifuged at 450 g for 10 min. The RBC pellet was washed three times with normal saline until the supernatant was clear. The washed RBCs were then resuspended in normal saline to prepare a 2% (v/v) suspension.
(§3) For the assay, 500 μL of the 2% RBC suspension was mixed with an equal volume of serially diluted drugs or controls in 1.5 mL tubes. The controls included: Negative control (0% hemolysis): normal saline. Positive control (100% hemolysis): distilled water. Solvent control: the vehicle for unmodified CTX (2.5% Tween 80 + 2.5% anhydrous ethanol + 95% normal saline). The mixtures were incubated at 37 °C for 1.5 h and then centrifuged at 450 g for 5 min. Subsequently, 150 μL of the supernatant from each tube was transferred to a 96-well plate, and the absorbance at 545 nm (OD545) was measured using a microplate reader. The percentage of hemolysis was calculated using the following formula: Hemolysis (%) = [(ODsample - ODnegative control)/(ODpositive control - ODnegative control)] × 100.

[2] = tested on: rat red blood cells (RBCs); assay: Hemolysis test; format: cell-based, SD rats; settings: vs unmodified CTX
Experimental: as §2, §3

[3] = tested on: DU145 prostate cancer model; assay: DU145 prostate cancer xenograft, tumor volume; format: in vivo, BALB/c nude mice; settings: 3 μmol/kg tail vein, three times at 3-day intervals, control 500 ± 45 mm³
Experimental: (§4) All animal experiments were conducted in accordance with protocols approved by the Institutional Animal Care and Use Committee of Peking Union Medical College. Male BALB/c nude mice (6–8 weeks old) and female KM mice (6–8 weeks old) were purchased from Charles River Laboratories (Beijing, China) and maintained under specific pathogen-free conditions.
DU145 Prostate cancer model: DU145 cells (3×10^6 cells/mouse) were subcutaneously inoculated into the right flank of BALB/c nude mic. When tumors reached approximately 100 mm³, mice were randomly divided into four treatment groups (n=6/group): (a) Vehicle control; (b) CTX (3 μmol/kg); (c) CTX-TTHA (3 μmol/kg); (d) CTX-DTPA (3 μmol/kg). Treatments were administered via tail vein injection three times at 3-day intervals. Major organs were collected for histopathological examination after the final administration.

MCF-7 xenografts = assay: MCF-7 breast cancer xenograft, tumor volume; format: in vivo, BALB/c nude mice; settings: MCF-7 xenograft, 9.6 μmol/kg
Experimental: as §4
MCF-7 Breast Cancer Model: Female BALB/c nude mice bearing MCF-7 xenografts (2×10^6 cells/mouse) were randomized into treatment groups as described above, with an adjusted dose of 9.6 μmol/kg for all CTX formulations.

[4] = Systemic toxicity in H22 tumor-bearing mice (body weight, blood count); format: in vivo, KM mice; settings: H22 mice, throughout treatment, across all dose groups (9.6 and 19.1 μmol/kg)
Experimental: H22 hepatoma model: Female KM mice were subcutaneously implanted with H22 cells (2×10^6 cells/mouse) and assigned to six groups: (a) Vehicle control; (b) CTX (9.6 μmol/kg in 5% glucose with 2.5% ethanol/2.5% Tween 80); (c) CTX-TTHA (9.6 μmol/kg in saline); (d) CTX-DTPA (9.6 μmol/kg in saline); (e) CTX-TTHA (19.1 μmol/kg in saline); (f) CTX-DTPA (19.1 μmol/kg in saline).
Treatments were administered every other day for four doses (three doses for CTX group due to weight loss >15%). Peripheral blood samples were collected for complete blood count analysis using an automated hematology analyzer.

[5] = Plasma pharmacokinetics (non-compartmental); settings: SD rats
Experimental: (§5) Male and female SD rats (200–220 g) received intravenous injections of CTX or CTX-DTPA (6 μmol/kg). CTX was dissolved in 2.5% Tween 80/2.5% EtOH/saline, while CTX-DTPA used saline alone. Blood samples were collected at 5 min to 24 h post-dose. Tissues (heart, liver, spleen, lung, kidney, thymus) and excreta were collected at 15 min, 2 h, 4 h, and 12 h. Plasma and tissue samples were processed by liquid-liquid extraction with n-butanol and analyzed via LC-MS/MS (Agilent Poroshell 120 EC-C18 column; 0.05% formic acid/acetonitrile gradient). Pharmacokinetic parameters were calculated using DAS 2.0 via non-compartmental analysis.

Tissue distribution = settings: CTX metabolite after CTX-DTPA 6 μmol/kg iv, SD rats
Experimental: as §5

[6] = CTX-DTPA 6 μmol/kg iv, plasma, CTX metabolite derived from CTX-DTPA

Q: Which logP at 24 h [1] does the source give for COC1C(=O)C2(C)C(OC)CC3OCC3(OC(C)=O)C2C(OC(=O)c2ccccc2)C2(O)CC(OC(=O)C(OC(=O)CN(CCN(CCN(CCN(CC(=O)O)CC(=O)O)CC(=O)O)CC(=O)O)CC(=O)O)C(NC(=O)OC(C)(C)C)c3ccccc3)C(C)=C1C2(C)C (stereo not shown) [CTX-TTHA] here?
A: Its logP at 24 h is -1.37 ± 0.38.

Q: And the IC50 (A549)?
A: Its IC50 is 3.3 ± 1.6 nM.

Q: And the IC50 (Bel-7402)?
A: The IC50 was 2.4 ± 0.4 nM.

Q: What about the IC50 (DU145) of the same compound?
A: The IC50 was 4.1 ± 2.2 nM.

Q: And the IC50 (Fadu)?
A: The IC50 was 2.3 ± 0.9 nM.

Q: What about the IC50 (H358) of the same compound?
A: Its IC50 is 1.6 ± 0.4 nM.

Q: What about the IC50 (H460) of the same compound?
A: Its IC50 is 1.9 ± 0.7 nM.

Q: And the IC50 (H520)?
A: The IC50 was 2.1 ± 0.6 nM.

Q: And the IC50 (HCT 116)?
A: Its IC50 is 2.1 ± 0.9 nM.

Q: And the IC50 (HT-29)?
A: Its IC50 is 8.4 ± 3.8 nM.

Q: What about the IC50 (LN229) of the same compound?
A: Its IC50 is 7.6 ± 3.1 nM.

Q: And the IC50 (MCF-7)?
A: The IC50 was 5.5 ± 2.3 nM.

Q: What about the IC50 (PC-3) of the same compound?
A: The IC50 was 7.4 ± 2.8 nM.

Q: What about the IC50 (SK-OV-3) of the same compound?
A: The IC50 was 3.2 ± 0.8 nM.

Q: What about the IC50 (L-02) of the same compound?
A: The IC50 was 6.8 ± 0.4 nM.

Q: And the IC50 (3T3)?
A: The IC50 was 8 ± 3.3 nM.

Q: What about the “cells arrested in G2/M” value (DU145 cells; DU145, 1 nM) of the same compound?
A: The value was 15.1 ± 0.1%.

Q: And the “cells arrested in G2/M” value (DU145 cells; DU145, 25 nM)?
A: The value was 69.9 ± 12.6%.

Q: What about the hemolysis at 1.5 h, 300 nmol/mL (Hemolysis test; 300 nmol/mL (maximum tested), read-out: hemolysis rate) of the same compound?
A: The hemolysis at 1.5 h, 300 nmol/mL was 28.3 ± 13.9%.

Q: And the hemolysis at 1.5 h (Hemolysis test; concentrations up to 150 nmol/mL)?
A: Its hemolysis at 1.5 h is under 2%.

Q: And the “improvement in hemocompatibility over unmodified CTX” value [2]?
A: The value was 64 fold.

Q: What about the final tumor volume [3] of the same compound?
A: Its final tumor volume is 270 ± 28 mm³.

Q: What about the “tumor volume at study endpoint” value (MCF-7 xenografts) of the same compound?
A: Its value is 190 ± 22 mm³.

Q: What about the WBC counts [4] of the same compound?
A: The WBC counts was 3.50-5.60 ×10^9/L.

Q: What does the source list for CO[C@H]1C(=O)[C@]2(C)[C@@H](OC)C[C@H]3OC[C@@]3(OC(C)=O)[C@H]2[C@H](OC(=O)c2ccccc2)[C@]2(O)C[C@H](OC(=O)[C@H](O)[C@@H](NC(=O)OC(C)(C)C)c3ccccc3)C(C)=C1C2(C)C [CTX/CTX-DTPA]?
A: Cmax relative to CTX ([5]; 6 μmol/kg iv, CTX metabolite from CTX-DTPA vs CTX group, greater): 2.2 fold; AUC(0-t) [5, 6]: **** 5157.71 ± 1650.87 μg/L*h; CL [5, 6]: 25.2 ± 6.83 mL/min/kg; Cmax [5, 6]: * 6311.67 ± 1217.79 μg/L; MRT0-t [5, 6]: 0.72 ± 0.02 H; Vd [5, 6]: * 6.04 ± 1.63 L/kg; t1/2 [5, 6]: **** 2.77 ± 0.00 H; tissue concentration (Tissue distribution; heart, 15 min): * 2.38 ± 0.46 μg/kg; tissue concentration (Tissue distribution; heart, 2 h): *** 2.27 ± 0.70 μg/kg; tissue concentration (Tissue distribution; heart, 4 h): *** 1.26 ± 0.20 μg/kg; tissue concentration (Tissue distribution; heart, 12 h): ** 0.41 ± 0.29 μg/kg; tissue concentration (Tissue distribution; kidney, 15 min): **** 53.38 ± 7.21 μg/kg; tissue concentration (Tissue distribution; kidney, 2 h): ** 63.87 ± 43.92 μg/kg; tissue concentration (Tissue distribution; kidney, 4 h): *** 8.74 ± 0.10 μg/kg; tissue concentration (Tissue distribution; kidney, 12 h): **** 3.14 ± 1.66 μg/kg; tissue concentration (Tissue distribution; liver, 15 min): *** 17.88 ± 1.12 μg/kg; tissue concentration (Tissue distribution; liver, 2 h): ** 10.31 ± 7.28 μg/kg; tissue concentration (Tissue distribution; liver, 4 h): ** 4.62 ± 3.48 μg/kg; tissue concentration (Tissue distribution; liver, 12 h): * 1.91 ± 1.12 μg/kg; tissue concentration (Tissue distribution; lung, 15 min): *** 12.95 ± 5.49 μg/kg; tissue concentration (Tissue distribution; lung, 2 h): **** 9.66 ± 5.84 μg/kg; tissue concentration (Tissue distribution; lung, 4 h): **** 2.44 ± 0.01 μg/kg; tissue concentration (Tissue distribution; lung, 12 h): * 1.78 ± 0.82 μg/kg; tissue concentration (Tissue distribution; spleen, 15 min): ** 5.49 ± 0.53 μg/kg; tissue concentration (Tissue distribution; spleen, 2 h): **** 8.23 ± 4.20 μg/kg; tissue concentration (Tissue distribution; spleen, 4 h): ** 2.61 ± 0.42 μg/kg; tissue concentration (Tissue distribution; spleen, 12 h): ** 1.43 ± 0.96 μg/kg; tissue concentration (Tissue distribution; thymus, 15 min): ** 1.49 ± 0.02 μg/kg; tissue concentration (Tissue distribution; thymus, 2 h): * 4.37 ± 5.02 μg/kg; tissue concentration (Tissue distribution; thymus, 4 h): * 0.79 ± 0.28 μg/kg; tissue concentration (Tissue distribution; thymus, 12 h): **** 0.80 ± 0.42 μg/kg
